The source of these data is patent publication US10370366B2 (Flatley Discovery Lab, LLC, priority 2013, dated 2019).

Usually EC50 stands for the concentration giving half of the maximal effect.

For this assay, the target named is T1, human F508del CFTR (Homo sapiens, UniProt P13569, DEL508-508).
T1 construct: expressed in transfected cells; host or cells: Fisher Rat Thyroid (FRT) cells
In words: CFTR-YFP High Throughput Assay. The note with it: FRT cells expressing human F508del CFTR and YFP; for Emax: EMax normalized to the positive control, read-out: % Efficacy. In kind it is cell-based. An outline of the steps:
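FRT cells stably co-expressing human F508del CFTR and halide-sensitive YFP-H148Q/I152L; for correction, compound (2 nM-40 μM) incubated 24-26 h at 37° C, washed, then stimulated 60-120 min at RT with 20 μM forskolin plus 30 μM potentiator P3. Iodide-induced YFP quench (Ex 500/Em 540 nm) recorded; quench rates least-squares fitted.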

T1 sequence (P13569 with tags, fused parts or gaps DEL508-508): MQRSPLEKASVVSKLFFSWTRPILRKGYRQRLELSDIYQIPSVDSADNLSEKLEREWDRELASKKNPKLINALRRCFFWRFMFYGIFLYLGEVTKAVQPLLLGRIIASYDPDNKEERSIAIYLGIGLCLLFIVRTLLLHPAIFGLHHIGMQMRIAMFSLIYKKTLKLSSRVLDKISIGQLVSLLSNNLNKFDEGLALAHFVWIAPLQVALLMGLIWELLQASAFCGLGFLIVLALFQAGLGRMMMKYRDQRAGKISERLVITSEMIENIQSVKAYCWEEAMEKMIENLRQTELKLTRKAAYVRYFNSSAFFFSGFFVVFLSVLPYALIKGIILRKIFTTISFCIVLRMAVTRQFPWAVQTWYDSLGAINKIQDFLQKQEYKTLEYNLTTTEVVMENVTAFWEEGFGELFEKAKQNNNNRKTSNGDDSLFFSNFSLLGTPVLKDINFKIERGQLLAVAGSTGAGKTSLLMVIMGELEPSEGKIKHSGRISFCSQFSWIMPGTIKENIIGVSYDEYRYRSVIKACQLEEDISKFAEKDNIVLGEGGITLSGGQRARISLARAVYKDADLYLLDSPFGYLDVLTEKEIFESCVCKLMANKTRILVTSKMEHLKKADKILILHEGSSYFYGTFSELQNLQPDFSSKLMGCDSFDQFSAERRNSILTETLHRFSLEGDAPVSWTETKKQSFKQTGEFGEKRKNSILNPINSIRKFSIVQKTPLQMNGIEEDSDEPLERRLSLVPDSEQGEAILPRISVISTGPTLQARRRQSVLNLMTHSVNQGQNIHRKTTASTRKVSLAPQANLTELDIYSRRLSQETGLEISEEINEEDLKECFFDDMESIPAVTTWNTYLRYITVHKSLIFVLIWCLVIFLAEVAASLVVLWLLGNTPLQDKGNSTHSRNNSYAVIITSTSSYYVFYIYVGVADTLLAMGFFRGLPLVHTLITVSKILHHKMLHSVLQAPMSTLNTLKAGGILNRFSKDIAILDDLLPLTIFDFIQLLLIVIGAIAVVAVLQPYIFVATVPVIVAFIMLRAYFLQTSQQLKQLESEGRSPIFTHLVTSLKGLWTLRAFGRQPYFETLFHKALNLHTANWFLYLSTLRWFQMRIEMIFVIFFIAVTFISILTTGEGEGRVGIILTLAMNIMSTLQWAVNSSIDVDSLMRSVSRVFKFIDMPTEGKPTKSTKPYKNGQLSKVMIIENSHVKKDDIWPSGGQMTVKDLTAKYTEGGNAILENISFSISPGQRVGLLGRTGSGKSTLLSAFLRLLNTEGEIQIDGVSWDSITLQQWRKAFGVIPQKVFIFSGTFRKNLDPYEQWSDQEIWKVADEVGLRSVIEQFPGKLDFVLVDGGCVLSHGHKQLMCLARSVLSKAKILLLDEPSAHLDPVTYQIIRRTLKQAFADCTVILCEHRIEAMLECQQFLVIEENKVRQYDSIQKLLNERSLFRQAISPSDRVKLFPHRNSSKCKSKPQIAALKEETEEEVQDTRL

`CCN(C(=O)c1nn(-c2ccc(C)cc2)c(=O)c2c1c1ccccc1n2CC(=O)O)c1ccccc1` [Example 224, 2-(1-(ethyl(phenyl)carbamoyl)-4-oxo-3-(p-tolyl)-3H-pyridazino[4,5-b]indol-5(4H)-yl)acetic acid]: the Emax is 30 to 80%.
As for `CCN(C(=O)c1nn(-c2ccc(C)cc2)c(=O)c2c1c1ccccc1n2C(C)C)c1ccccc1` [Example 225, N-ethyl-5-isopropyl-4-oxo-N-phenyl-3-(p-tolyl)-4,5-dihydro-3H-pyridazino[4,5-b]indole-1-carboxamide], the Emax fell in the range of 30 to 80%.
On the same count and under the same terms, the figure for `CCN(C(=O)c1nn(-c2ccc(C)cc2)c(=O)c2c1c1ccccc1n2Cc1ccccn1)c1ccccc1` [Example 226, N-ethyl-4-oxo-N-phenyl-5-(pyridin-2-ylmethyl)-3-(p-tolyl)-4,5-dihydro-3H-pyridazino[4,5-b]indole-1-carboxamide] is 30 to 80%.
On to `CCN(C(=O)c1nn(CCOC)c(=O)c2c1c1ccccc1n2C)c1ccccc1` [Example 227, N-ethyl-3-(2-methoxyethyl)-5-methyl-4-oxo-N-phenyl-4,5-dihydro-3H-pyridazino[4,5-b]indole-1-carboxamide], for which the Emax fell in the range of 30 to 80% and the EC50 was less than 10 µM.
Take `CCN(C(=O)c1nn(C[C@@H](O)COC)c(=O)c2c1c1ccccc1n2C)c1ccccc1` [Example 228, (R)-N-ethyl-3-(2-hydroxy-3-methoxypropyl)-5-methyl-4-oxo-N-phenyl-4,5-dihydro-3H-pyridazino[4,5-b]indole-1-carboxamide]: the Emax lay in the range of 30 to 80% and the EC50 is less than 10 µM.
`CCN(C(=O)c1nn(C[C@@H](O)CO)c(=O)c2c1c1ccccc1n2C)c1ccccc1` [Example 229, (R)-3-(2,3-dihydroxypropyl)-N-ethyl-5-methyl-4-oxo-N-phenyl-4,5-dihydro-3H-pyridazino[4,5-b]indole-1-carboxamide]: the Emax is 30 to 80% and the EC50 was less than 10 µM.
For `CCN(C(=O)c1nn(C[C@@H](O)COCc2ccccc2)c(=O)c2c1c1ccccc1n2C)c1ccccc1` [Example 230, (R)-3-(3-(benzyloxy)-2-hydroxypropyl)-N-ethyl-5-methyl-4-oxo-N-phenyl-4,5-dihydro-3H-pyridazino[4,5-b]indole-1-carboxamide], in that order: 30 to 80% and less than 10 µM.
For `CCN(CC)C(=O)c1nn(CC(O)COCc2ccccc2)c(=O)c2c1c1c(OC)cccc1n2C` (stereo not shown) [Example 231, 3-(3-(benzyloxy)-2-hydroxypropyl)-N,N-diethyl-9-methoxy-5-methyl-4-oxo-4,5-dihydro-3H-pyridazino[4,5-b]indole-1-carboxamide], in that order: 30 to 80% and less than 10 µM.
For `CCN(CC)C(=O)c1nn(CC(O)COCc2ccccc2)c(=O)c2c1c1c(C)cccc1n2C` (stereo not shown) [Example 232, 3-(3-(benzyloxy)-2-hydroxypropyl)-N,N-diethyl-5,9-dimethyl-4-oxo-4,5-dihydro-3H-pyridazino[4,5-b]indole-1-carboxamide], in that order: 30 to 80% and less than 10 µM.
On to `CCN(CC)C(=O)c1nn(CC(O)COCc2ccccc2)c(=O)c2c1c1c(Cl)cccc1n2C` (stereo not shown) [Example 233, 3-(3-(benzyloxy)-2-hydroxypropyl)-9-chloro-N,N-diethyl-5-methyl-4-oxo-4,5-dihydro-3H-pyridazino[4,5-b]indole-1-carboxamide], for which the Emax was in the range of 30 to 80% and the EC50 was less than 10 µM.
For `CCN(CC)C(=O)c1nn(CC(O)COCc2ccccc2)c(=O)c2c1c1c(F)cccc1n2C` (stereo not shown) [Example 234, 3-(3-(benzyloxy)-2-hydroxypropyl)-N,N-diethyl-9-fluoro-5-methyl-4-oxo-4,5-dihydro-3H-pyridazino[4,5-b]indole-1-carboxamide], in that order: 30 to 80% and less than 10 µM.
As to `Cn1c2ccccc2c2c(-c3ccccc3)nn(-c3ccccc3)c(=O)c21` [Example 235], the Emax is 10 to 30% and the half-maximal effective concentration (EC50) is more than 20 µM.
For `Cc1ccc(-n2nc(-c3ccccc3)c3c4ccccc4n(C)c3c2=O)cc1` [Example 236, 5-methyl-1-phenyl-3-(p-tolyl)-3H-pyridazino[4,5-b]indol-4(5H)-one], in that order: 10 to 30% and more than 20 µM.
For `Cn1c2ccccc2c2c(-c3ccccc3)nn(-c3ccccc3F)c(=O)c21` [Example 237, 3-(2-fluorophenyl)-5-methyl-1-phenyl-3H-pyridazino[4,5-b]indol-4(5H)-one], in that order: 10 to 30% and more than 20 µM.
For `CCN(C(=O)Cn1nc(Cc2cccnc2)c2c3ccccc3n(C)c2c1=O)c1ccc2c(c1)OC(F)(F)O2` [Example 238, N-(2,2-difluorobenzo[d][1, 3]dioxol-5-yl)-N-ethyl-2-(5-methyl-4-oxo-1-(pyridin-3-ylmethyl)-4,5-dihydro-3H-pyridazino[4,5-b]indol-3-yl)acetamide], in that order: 30 to 80% and less than 10 µM.
In the case of `CC(C)n1nc(-c2ccccc2)c2c3ccccc3n(C)c2c1=O` [Example 239, 3-isopropyl-5-methyl-1-phenyl-3,5-dihydro-4H-pyridazino[4,5-b]indol-4-one], the Emax was in the range of 30 to 80% and the EC50 is more than 20 µM.
For `CC(C)n1nc(-c2cccc(C#N)c2)c2c3ccccc3n(C)c2c1=O` [Example 240, 3-(3-isopropyl-5-methyl-4-oxo-4,5-dihydro-3H-pyridazino[4,5-b]indol-1-yl)benzonitrile], in that order: 30 to 80% and more than 20 µM.
As for `Cn1c2ccccc2c2c(-c3ccccc3)nn(C3CCCCC3)c(=O)c21` [Example 241, 3-cyclohexyl-5-methyl-1-phenyl-3,5-dihydro-4H-pyridazino[4,5-b]indol-4-one], the Emax was in the range of 30 to 80% and the EC50 was less than 10 µM.
For the molecule `Cc1ccc(-n2nc(Cn3ccnc3)c3c4ccccc4n(C)c3c2=O)cc1` [Example 242, 1-((1H-imidazol-1-yl)methyl)-5-methyl-3-(p-tolyl)-3,5-dihydro-4H-pyridazino[4,5-b]indol-4-one], the Emax is 30 to 80% and the EC50 was more than 20 µM.
For `Cc1ccc(-n2nc(CN3CCOCC3)c3c4ccccc4n(C)c3c2=O)cc1` [Example 243, 5-methyl-1-(morpholinomethyl)-3-(p-tolyl)-3,5-dihydro-4H-pyridazino[4,5-b]indol-4-one], in that order: 30 to 80% and less than 10 µM.
For `Cn1c2ccccc2c2c(-c3cccc(C#N)c3)nn(C3CCCCC3)c(=O)c21` [Example 244, 3-(3-cyclohexyl-5-methyl-4-oxo-4,5-dihydro-3H-pyridazino[4,5-b]indol-1-yl)benzonitrile], in that order: 30 to 80% and less than 10 µM.
Consider `CCN(C(=O)c1nn(-c2ccc(C)cc2)c(=O)c2c1c1sc(C)cc1n2C)c1ccccc1` [Example 245, N-ethyl-2,4-dimethyl-5-oxo-N-phenyl-6-(p-tolyl)-5,6-dihydro-4H-thieno[2′,3′:4,5]pyrrolo[2,3-d]pyridazine-8-carboxamide], for which the Emax was in the range of 10 to 30% and the EC50 was less than 10 µM.
For `CCN(C(=O)c1nn(C(C)C)c(=O)c2c1c1sc(C)cc1n2C)c1ccccc1` [Example 246, N-ethyl-6-isopropyl-2,4-dimethyl-5-oxo-N-phenyl-5,6-dihydro-4H-thieno[2′,3′:4,5]pyrrolo[2,3-d]pyridazine-8-carboxamide], in that order: 30 to 80% and more than 20 µM.
For `CCN(C(=O)c1nn(-c2ccc(C)cc2)c(=O)c2c1c1sc(C)cc1n2C)c1ccccc1F` [Example 247, N-ethyl-N-(2-fluorophenyl)-2,4-dimethyl-5-oxo-6-(p-tolyl)-5,6-dihydro-4H-thieno[2′,3′:4,5]pyrrolo[2,3-d]pyridazine-8-carboxamide], in that order: 30 to 80% and more than 20 µM.
As for `Cc1ccc(-n2nc(C(=O)N(c3ccccc3)C(C)C)c3c(-c4ccccc4)onc3c2=O)cc1` [Example 248, N-isopropyl-7-oxo-N,3-diphenyl-6-(p-tolyl)-6,7-dihydroisoxazolo[3,4-d]pyridazine-4-carboxamide], the Emax was 10 to 30% and the EC50 is less than 10 µM.
For `COc1ccc2c(-c3cccc(Cl)c3)nn(CC(=O)C3(c4ccc5c(c4)OC(F)(F)O5)CC3)c(=O)c2c1` [Example 249, 4-(3-chlorophenyl)-2-(2-(1-(2,2-difluorobenzo[d][1,3]dioxol-5-yl)cyclopropyl)-2-oxoethyl)-7-methoxyphthalazin-1(2H)-one], in that order: more than 80% and less than 10 µM.
Take `COc1ccc2c(-c3cccc(F)c3)nn(CC(=O)C3(c4ccc5c(c4)OC(F)(F)O5)CC3)c(=O)c2c1` [Example 250, 2-(2-(1-(2,2-difluorobenzo[d][1,3]dioxol-5-yl)cyclopropyl)-2-oxoethyl)-4-(3-fluorophenyl)-7-methoxyphthalazin-1(2H)-one]: the Emax fell in the range of 30 to 80% and the EC50 is less than 10 µM.
For the molecule `COc1ccc(C2(C(=O)Cn3nc(-c4cccc(Cl)c4)c4ccc(OC)cc4c3=O)CC2)cc1` [Example 251, 4-(3-chlorophenyl)-7-methoxy-2-(2-(1-(4-methoxyphenyl)cyclopropyl)-2-oxoethyl)phthalazin-1(2H)-one], the Emax was in the range of 30 to 80% and the 50% effective concentration (EC50) was less than 10 µM.
On to `COc1ccc2c(-c3cccc(C#N)c3)nn(CC(=O)C3(c4ccc5c(c4)OC(F)(F)O5)CC3)c(=O)c2c1` [Example 252, 3-(3-(2-(1-(2,2-difluorobenzo[d][1,3]dioxol-5-yl)cyclopropyl)-2-oxoethyl)-6-methoxy-4-oxo-3,4-dihydrophthalazin-1-yl)benzonitrile], for which the Emax was more than 80% and the EC50 was less than 10 µM.
